Among the test systems are TK-10 renal; OVCAR-8 ovarian; UO-31 renal; HOP-62 NSCLC; ACHN renal; K-562 leukemia; MDA-MB-435; RPMI-8226 leukemia; NCI-H23 lung; U251 CNS.
Experiment in all cases: growth of human tumour cells (NCI), 48 h

Molecules are shown by their SMILES.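 Dose response: 5 concentrations. Exposure: 48 h. Format: 96-well plates. Endpoint: linear interpolation; highest concentration if not reached. At the TGI there is no net growth.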

Turning to `COC(=O)/C=C1\CCC(C)(C(=O)NS(=O)(=O)c2ccc(C)cc2)C1(C)C` (stereo not given), the TGI with TK-10 renal, in the assay on OVCAR-8 ovarian, with UO-31 renal, in the assay on HOP-62 NSCLC, in the assay with ACHN renal and with K-562 leukemia was > 100 µM each time. Moreover, the TGI in the assay with MDA-MB-435, with RPMI-8226 leukemia, in the assay with NCI-H23 lung and with U251 CNS was > 100 µM in each case.
On to `O=C1C(Br)=CC2(C=C1Br)CCNC1=C2C(=O)c2cccnc2C1=O`, for which the TGI in the assay on TK-10 renal came out at 35.9 µM; in the assay with OVCAR-8 ovarian, 32.4 µM; in the assay on UO-31 renal, 68.5 µM; with HOP-62 NSCLC, 21.3 µM; in the assay on ACHN renal, 48.9 µM; with K-562 leukemia, 6.84 µM. Besides, the TGI is 3.33 µM with MDA-MB-435, 36.9 µM in the assay with RPMI-8226 leukemia, 18.2 µM in the assay with NCI-H23 lung and 35.6 µM in the assay with U251 CNS.
Regarding `CCOc1nc(-c2ccccc2)cc(-c2ccc(N3CCOCC3)cc2)c1C#N`, the TGI in the assay with TK-10 renal, with OVCAR-8 ovarian, in the assay on UO-31 renal, in the assay on HOP-62 NSCLC, in the assay with ACHN renal and in the assay on K-562 leukemia was > 100 µM each time. Further, the TGI with MDA-MB-435, in the assay on RPMI-8226 leukemia, in the assay with NCI-H23 lung and with U251 CNS was > 100 µM throughout.
Take `O=S1(=O)c2ccccc2C(=NO)c2ccccc21`: the TGI with TK-10 renal, with OVCAR-8 ovarian, in the assay with UO-31 renal, in the assay with HOP-62 NSCLC, with ACHN renal and with K-562 leukemia was > 100 µM in each case. In addition, the TGI in the assay on MDA-MB-435, in the assay on RPMI-8226 leukemia, with NCI-H23 lung and in the assay on U251 CNS was > 100 µM each time.
For the compound `COc1cccc(N(CN2CC=CC2=O)C(C)=O)c1`, the TGI with TK-10 renal, in the assay on OVCAR-8 ovarian, with UO-31 renal, in the assay on HOP-62 NSCLC, in the assay with ACHN renal and in the assay on K-562 leukemia was > 100 µM each time. Also, the TGI in the assay on MDA-MB-435, in the assay with RPMI-8226 leukemia, in the assay on NCI-H23 lung and in the assay on U251 CNS was > 100 µM throughout.
`Nc1ccccc1N/C=C\C(=O)C(Cl)(Cl)Cl`: the TGI is 71.9 µM in the assay with TK-10 renal; > 100 µM in the assay on OVCAR-8 ovarian; 62.6 µM with UO-31 renal; 37.2 µM with HOP-62 NSCLC; 35.1 µM in the assay with ACHN renal; 78.9 µM in the assay with K-562 leukemia. Also, the TGI with MDA-MB-435 stood at 28 µM; in the assay on RPMI-8226 leukemia it was 38 µM; in the assay with NCI-H23 lung it was 59.9 µM; with U251 CNS it was 56.9 µM.
On to `NC(=S)Nc1[nH]c(=S)nc2c1SC1=N/C(=C\c3ccco3)C(=O)N12`, for which the TGI with TK-10 renal was > 100 µM; in the assay with OVCAR-8 ovarian, > 100 µM; in the assay with UO-31 renal, > 100 µM; in the assay with HOP-62 NSCLC, > 100 µM; in the assay on ACHN renal, > 100 µM; with K-562 leukemia, > 66.5 µM. In addition, the TGI is > 100 µM with MDA-MB-435, > 90.6 µM with RPMI-8226 leukemia, > 100 µM in the assay with NCI-H23 lung and > 100 µM in the assay on U251 CNS.
On to `O=c1c2cc(I)ccc2nc(Sc2ncccc2[N+](=O)[O-])n1Cc1ccccc1`, for which the TGI with TK-10 renal, in the assay on OVCAR-8 ovarian, with UO-31 renal, in the assay on HOP-62 NSCLC, in the assay with ACHN renal and in the assay with K-562 leukemia was > 100 µM each time. The TGI in the assay on MDA-MB-435, with RPMI-8226 leukemia, in the assay with NCI-H23 lung and in the assay on U251 CNS was > 100 µM in each case.
Consider `Cc1sc(/N=C/c2c[nH]c3ccccc23)c(C#N)c1C`, for which the TGI is 74.9 µM with TK-10 renal; > 100 µM in the assay on OVCAR-8 ovarian; > 100 µM in the assay on UO-31 renal; > 100 µM with HOP-62 NSCLC; > 100 µM in the assay on ACHN renal; > 100 µM in the assay with K-562 leukemia. In addition, the TGI in the assay on MDA-MB-435 is > 100 µM; in the assay with RPMI-8226 leukemia, > 100 µM; with NCI-H23 lung, > 100 µM; in the assay with U251 CNS, 96.4 µM.
For `CC[C@H](C)[C@H]1NC(=O)[C@@H](NC(=O)[C@@H](CC(C)C)N(C)CC2CCCN2C(=O)C(C)=O)[C@@H](C)OC(=O)[C@H](Cc2ccc(OC)cc2)N(C)C(=O)C2CCCN2C(=O)[C@H](CC(C)C)NC(=O)[C@@H](C)C(=O)[C@H](C(C)C)OC(=O)C[C@@H]1O` (stereo not given in full), the TGI was 0.0202 µM in the assay with TK-10 renal; 0.0474 µM in the assay on OVCAR-8 ovarian; 0.0862 µM in the assay on UO-31 renal; 0.00713 µM with HOP-62 NSCLC; 0.0389 µM in the assay on ACHN renal; 0.0158 µM in the assay on K-562 leukemia. In addition, the TGI in the assay with MDA-MB-435 was determined as 0.0105 µM; in the assay with RPMI-8226 leukemia it was 0.00697 µM; in the assay on NCI-H23 lung it was 0.0591 µM; in the assay with U251 CNS, 0.00534 µM.
For the compound `O=C(c1ccccc1)c1ccc2nc(-c3c(Cl)c(Cl)c(Cl)c(Cl)c3C(=O)N/N=C/c3ccccc3)[nH]c2c1`, the TGI in the assay on TK-10 renal was > 100 µM; with OVCAR-8 ovarian, > 100 µM; with UO-31 renal, > 100 µM; in the assay with HOP-62 NSCLC, 99.7 µM; in the assay on ACHN renal it was 49.2 µM; with K-562 leukemia it was > 100 µM. Further, the TGI is 90.8 µM with MDA-MB-435, 63 µM in the assay with RPMI-8226 leukemia, 80.9 µM in the assay with NCI-H23 lung and > 100 µM in the assay with U251 CNS.
Regarding `COc1ccc(N=N/C(=N/NC(=O)c2ccccc2)c2ccc(N(CCC#N)CCC#N)cc2C)cc1`, the TGI in the assay on TK-10 renal, in the assay on OVCAR-8 ovarian, in the assay with UO-31 renal, in the assay on HOP-62 NSCLC, in the assay on ACHN renal and in the assay with K-562 leukemia was > 100 µM in each case. The TGI with MDA-MB-435, with RPMI-8226 leukemia, in the assay with NCI-H23 lung and in the assay on U251 CNS was > 100 µM each time.
As for `O=C(OCc1ccccc1)C1(N2CN(C3(C(=O)OCc4ccccc4)CCCC3)CN(C3(C(=O)OCc4ccccc4)CCCC3)C2)CCCC1`, the TGI in the assay on TK-10 renal, in the assay with OVCAR-8 ovarian, in the assay on UO-31 renal, in the assay with HOP-62 NSCLC, in the assay on ACHN renal and with K-562 leukemia was > 10 µM in each case. Further, the TGI with MDA-MB-435, in the assay on RPMI-8226 leukemia, in the assay on NCI-H23 lung and in the assay with U251 CNS was > 10 µM throughout.
For the compound `COc1ccc(-c2c(N)n(-c3cccc(C(=O)O)c3)c(=O)c3cc([N+](=O)[O-])ccc23)cc1`, the TGI with TK-10 renal, with OVCAR-8 ovarian, in the assay on UO-31 renal, in the assay on HOP-62 NSCLC, with ACHN renal and in the assay on K-562 leukemia was > 100 µM throughout. For the same compound, the TGI with MDA-MB-435, in the assay with RPMI-8226 leukemia, with NCI-H23 lung and in the assay on U251 CNS was > 100 µM in each case.
For the compound `CN(C)Cc1cc(O)c(O)c(CN(C)C)c1`, the TGI in the assay with TK-10 renal, in the assay with OVCAR-8 ovarian, in the assay with UO-31 renal, with HOP-62 NSCLC, in the assay on ACHN renal and in the assay with K-562 leukemia was > 100 µM throughout. Further, the TGI with MDA-MB-435, in the assay with RPMI-8226 leukemia, with NCI-H23 lung and with U251 CNS was > 100 µM each time.
Turning to `O=c1c(C=Nc2ccc([N+](=O)[O-])cc2)c(O)n(-c2ccccc2)c(=O)n1-c1ccccc1`, the TGI in the assay on TK-10 renal, with OVCAR-8 ovarian, in the assay with UO-31 renal, with HOP-62 NSCLC, in the assay with ACHN renal and in the assay on K-562 leukemia was > 100 µM throughout. In addition, the TGI with MDA-MB-435, in the assay on RPMI-8226 leukemia, with NCI-H23 lung and in the assay on U251 CNS was > 100 µM in each case.
For `CC(C)(C)C1(COC(=O)c2ccc(N)cc2)COC1`, the TGI with TK-10 renal, in the assay with OVCAR-8 ovarian, with UO-31 renal, with HOP-62 NSCLC, with ACHN renal and in the assay with K-562 leukemia was > 100 µM throughout. Also, the TGI with MDA-MB-435, with RPMI-8226 leukemia, with NCI-H23 lung and in the assay with U251 CNS was > 100 µM in each case.
`Oc1ccc(SCc2cc(O)c(O)c(O)c2)cc1`: the TGI is > 100 µM in the assay on TK-10 renal; 49.6 µM with OVCAR-8 ovarian; > 100 µM in the assay with UO-31 renal; 56.4 µM in the assay on HOP-62 NSCLC; > 100 µM in the assay on ACHN renal; > 100 µM in the assay on K-562 leukemia. Besides, the TGI is > 100 µM in the assay on MDA-MB-435, 78.6 µM in the assay on RPMI-8226 leukemia, > 100 µM in the assay with NCI-H23 lung and > 100 µM in the assay on U251 CNS.
With `O=C1COc2ccc([N+](=O)[O-])cc2C(=O)C1`, the TGI in the assay on TK-10 renal, in the assay with OVCAR-8 ovarian, with UO-31 renal, in the assay on HOP-62 NSCLC, in the assay with ACHN renal and with K-562 leukemia was > 10 µM each time. Also, the TGI with MDA-MB-435, with RPMI-8226 leukemia, with NCI-H23 lung and in the assay with U251 CNS was > 10 µM throughout.

The values are drawn from PubChem BioAssay (NCI).
